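The concentration for 50% growth inhibition is given as GI50. At the TGI there is no net growth.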
Experiments:
Test in all cases: NCI tumour cell line growth inhibition, 384-well format
[1] = tested on: NCI-H226 lung
[2] = tested on: CCRF-CEM leukemia
[3] = tested on: MDA-MB-231 breast
[4] = tested on: UACC-62 melanoma
[5] = tested on: NCI-H23 lung
[6] = tested on: SW-620 colon
[7] = tested on: CAKI-1 renal
[8] = tested on: IGROV1 ovarian
[9] = tested on: MCF7 breast
[10] = tested on: LOX IMVI melanoma
[11] = tested on: A498 renal
[12] = tested on: EKVX NSCLC
[13] = tested on: SK-MEL-28 melanoma

SMILES | GI50 [1] [nM] | TGI [1] [nM] | GI50 [2] [nM] | TGI [2] [nM] | GI50 [3] [nM] | TGI [3] [nM] | GI50 [4] [nM] | TGI [4] [nM] | GI50 [5] [nM] | TGI [5] [nM] | GI50 [6] [nM] | TGI [6] [nM] | GI50 [7] [nM] | TGI [7] [nM] | GI50 [8] [nM] | TGI [8] [nM] | GI50 [9] [nM] | TGI [9] [nM] | GI50 [10] [nM] | TGI [10] [nM] | further results
COCCNc1cc(NC(=O)N2CCCc3cc(CN4CCN(C)CC4=O)c(C=O)nc32)ncc1C#N | > 100000 | > 100000 | 27000 | > 100000 | > 100000 | > 100000 | > 100000 | > 100000 | > 100000 | > 100000 | > 100000 | > 100000 | > 100000 | > 100000 | > 100000 | > 100000 | > 100000 | > 100000 | > 100000 | > 100000 | GI50 [11]: > 100000 nM; TGI [11]: > 100000 nM; GI50 [12]: > 100000 nM; TGI [12]: > 100000 nM; GI50 [13]: > 100000 nM; TGI [13]: > 100000 nM
Cc1[nH]c2ccccc2c1CCNCc1ccc(/C=C/C(=O)NO)cc1 | 35.9 | 133 | < 10 | < 10 | 12.1 | 30.5 | < 10 | 16.1 | 13.9 | 41.1 | 12.3 | 25.5 | 13.1 | 28.6 | 10.8 | 26.4 | < 11 | 25.9 | 13.1 | 26.2 | GI50 [11]: 16.6 nM; TGI [11]: 36 nM; GI50 [12]: 42.7 nM; TGI [12]: 398 nM; GI50 [13]: 15.3 nM; TGI [13]: 38 nM

— PubChem BioAssay (NCI)
